Measurements from ChEMBL document CHEMBL1151622, “Occurrence of gerrardine in Cassipourea guianensis” (1984).
Converted amounts (≈) assume the structure as drawn.

Columns and labels:
Assay type in all cases: functional
Klebsiella pneumoniae = assay: Antimicrobial activity against Klebsiella pneumoniae DA after 2 days; settings: 48 h
Candida albicans = assay: Antimicrobial activity against Candida albicans TA
Escherichia coli [1] = assay: Antimicrobial activity against Escherichia coli 0-111 after 2 days; settings: 48 h
Escherichia coli [2] = assay: Antimicrobial activity against Escherichia coli NIHJ JC-2 after 2 days; settings: 48 h

## CN1[C@@H]([C@@H]2SSC[C@@H]2O)CC[C@@H]1[C@@H]1SSC[C@@H]1O [GERRARDINE]
Klebsiella pneumoniae
  MIC: 100 µg/mL (≈ 307 µM)
Candida albicans
  MIC: 50 µg/mL (≈ 154 µM)
Escherichia coli [1]
  MIC: 100 µg/mL (≈ 307 µM)
Escherichia coli [2]
  MIC: 100 µg/mL (≈ 307 µM)
